The compounds below were run against T1, Bcl-2 protein (Homo sapiens, UniProt P10415, DELINS35-91DVEENRTEAPEGTESE, form not given) (assay: Bcl-2 fluorescence polarization assay (FPA) binding). Details: 10 nM Bcl-2 protein, 1 nM fluorescein-labeled BAX peptide, room temperature, read-out: Bcl-2 FPA 11pt Ki.
T1 construct: fused on or other part: Bcl-xL (Q07817) residues 29-44 stand in place of Bcl-2's own unstructured loop 35-91; The C-terminal membrane anchor (208-239) is absent
T1 sequence (P10415 with tags, fused parts or gaps with the stated changes): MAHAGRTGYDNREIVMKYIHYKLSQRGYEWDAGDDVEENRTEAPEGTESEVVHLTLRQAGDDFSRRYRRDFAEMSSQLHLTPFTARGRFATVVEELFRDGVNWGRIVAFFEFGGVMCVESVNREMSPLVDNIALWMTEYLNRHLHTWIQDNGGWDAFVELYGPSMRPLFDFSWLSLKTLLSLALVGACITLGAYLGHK
Method: Assays for the inhibition of Bcl-2 were performed in 96-well microtiter plates. Compounds of the instant invention were diluted in DMSO to concentrations between […] and 10 pM and introduced into each well of the plate. A mixture totaling 125 µL per well of assay buffer (20 mM phosphate buffer (pH 7.4), 1 mM EDTA, 0.05% PF-68), 10 nM of Bcl-2 protein (prepared according to the procedure described in PNAS 2001, 98, 3012-3017), 1 nM fluorescein-labeled BAX peptide (prepared in-house), and the DMSO solution of the compound of the instant invention was shaken for 2 minutes and placed in a LJL Analyst (LJL Bio Systems, CA. Polarization was measured at room temperature using a continuous Fluorescein lamp (excitation 485 nm, emission 530 nm). Ki values were calculated using Microsoft Excel.
For `O=C(NS(=O)(=O)c1ccc(NC2CCOCC2)c([N+](=O)[O-])c1)c1ccc(N2CC3CC2CN3C(=O)C23CC4CC(CC(C4)C2)C3)cc1` (stereo not shown) [Example 43, 4-{5-[adamantan-1-ylcarbonyl]-2,5-diazabicyclo[2.2.1]hept-2-yl}-N-{[3-nitro-4-(tetrahydro-2H-pyran-4-ylamino)phenyl]sulfonyl}benzamide], the Ki was over 6250 nM.
`O=C(NS(=O)(=O)c1ccc(NCC2CCOCC2)c([N+](=O)[O-])c1)c1ccc(N2CCC(=Cc3ccccc3-c3ccc(-c4nc(-c5ccccc5)cs4)s3)CC2)cc1` [Example 75, N-({3-nitro-4-[(tetrahydro-2H-pyran-4-ylmethyl)amino]phenyl}sulfonyl)-4-(4-{2-[5-(4-phenyl-1,3-thiazol-2-yl)-2-thienyl]benzylidene}piperidin-1-yl)benzamide] gave a Ki of 251 nM.
`CC1(C)C2C=C(c3ccccc3CN3CCN(c4ccc(C(=O)NS(=O)(=O)c5ccc(NCC6CCOCC6)c([N+](=O)[O-])c5)cc4)CC3)C1(C(=O)NC1CC1)CC2` (stereo not shown) [Example 38, N-cyclopropyl-7,7-dimethyl-2-{2-[(4-{4-[({3-nitro-4-[(tetrahydro-2H-pyran-4-ylmethyl)amino]phenyl}sulfonyl)carbamoyl]phenyl}piperazin-1-yl)methyl]phenyl}bicyclo[2.2.1]hept-2-ene-1-carboxamide] gave a Ki of 149 nM.
Compound `CC1(C)O[C@@H]2[C@@H](CO[C@@]3(COS(=O)(=O)NC(=O)c4ccc(N5CCN(Cc6ccccc6-c6ccc(Cl)cc6)CC5)cc4)OC(C)(C)O[C@@H]23)O1` [Example 56, [(3 aS,5aR,8aR,8bS)-2,2,7,7-tetramethyltetrahydro-3aH-bis[1,3]dioxolo[4,5-b:4′,5′-d]pyran-3a-yl]methyl (4-{4-[(4′-chlorobiphenyl-2-yl)methyl]piperazin-1-yl}benzoyl)sulfamate] has a Ki of under 20 nM.
`O=C(NS(=O)(=O)c1ccc(NCC2CCOCC2)c([N+](=O)[O-])c1)c1ccc(N2CCN(Cc3ccccc3N3CC4CCC(CC4)C3)CC2)cc1` [Example 33, 4-(4-{2-[3-azabicyclo[3.2.2]non-3-yl]benzyl}piperazin-1-yl)-N-({3-nitro-4-[(tetrahydro-2H-pyran-4-ylmethyl)amino]phenyl}sulfonyl)benzamide] was tested, and the Ki was under 20 nM.
For `C[C@@H]1[C@@H](NC2CCC(C)(C)CC2CN2CCN(c3ccc(C(=O)NS(=O)(=O)c4ccc(NCC5CCOCC5)c([N+](=O)[O-])c4)cc3)CC2)C[C@@H]2C[C@H]1C2(C)C` (stereo partly drawn) [Example 21, 4-{4-[(5,5-dimethyl-2-{[(1R,2S,3S,5S)-2,6,6-trimethylbicyclo[3.1.1]hept-3-yl]amino}cyclohexyl)methyl]piperazin-1-yl}-N-({3-nitro-4-[(tetrahydro-2H-pyran-4-ylmethyl)amino]phenyl}sulfonyl)benzamide], the Ki was 5600 nM.
Compound `CC1(C)C2C=C(c3ccccc3CN3CCN(c4ccc(C(=O)NS(=O)(=O)c5ccc(NCC6CCOCC6)c([N+](=O)[O-])c5)cc4)CC3)C1(C(=O)O)CC2` (stereo not shown) [Example 39, 7,7-dimethyl-2-{2-[(4-{4-[({3-nitro-4-[(tetrahydro-2H-pyran-4-ylmethyl)amino]phenyl}sulfonyl)carbamoyl]phenyl}piperazin-1-yl)methyl]phenyl}bicyclo[2.2.1]hept-2-ene-1-carboxylic Acid] has a Ki of 2910 nM.
With `O=C(NS(=O)(=O)c1ccc(NCC2CCCCC2)c([N+](=O)[O-])c1)c1ccc(N2CCN(CCC34CC5CC(CC(C5)C3)C4)CC2)cc1` [Example 58, 4-(4-{2-[adamantan-1-yl]ethyl}piperazin-1-yl)-N-({4-[(cyclohexylmethyl)amino]-3-nitrophenyl}sulfonyl)benzamide] the Ki was over 18700 nM.
In the case of `C[C@@H]1[C@H]2C[C@@H](C[C@H]1Oc1ccc(C(=O)NS(=O)(=O)c3ccc(NC4CCOCC4)c([N+](=O)[O-])c3)cc1)C2(C)C` [Example 85, N-{[3-nitro-4-(tetrahydro-2H-pyran-4-ylamino)phenyl]sulfonyl}-4-{[(1R,2R,3R,5S)-2,6,6-trimethylbicyclo[3.1.1]hept-3-yl]oxy}benzamide], the Ki is reported as 2880 nM.
`O=C(NS(=O)(=O)c1ccc(NCC2CCOCC2)c([N+](=O)[O-])c1)c1ccc(N2CCN(Cc3ccccc3-c3ccc(C(=O)NC4CCCCCCC4)o3)CC2)cc1` [Example 29, N-cyclooctyl-5-{2-[(4-{4-[({3-nitro-4-[(tetrahydro-2H-pyran-4-ylmethyl)amino]phenyl}sulfonyl)carbamoyl]phenyl}piperazin-1-yl)methyl]phenyl}-2-furamide] showed a Ki of 354 nM.
Work on `O=C(NS(=O)(=O)c1ccc(NCC2CCOCC2)c([N+](=O)[O-])c1)c1ccc(N2CCN(Cc3ccccc3N(C(=O)CCc3ccccc3)C3CC4CC3C3CCCC43)CC2)cc1` (stereo not shown) [Example 70, N-({3-nitro-4-[(tetrahydro-2H-pyran-4-ylmethyl)amino]phenyl}sulfonyl)-4-(4-{2-[octahydro-1H-4,7-methanoinden-5-yl(3-phenylpropanoyl)amino]benzyl}piperazin-1-yl)benzamide] yielded a Ki of 35.4 nM.
For `CC1(C)C2C=C(c3ccccc3CN3CCN(c4ccc(C(=O)NS(=O)(=O)c5ccc(NCC6CCOCC6)c([N+](=O)[O-])c5)cc4)CC3)C1(C(=O)NCC13CC4CC(CC(C4)C1)C3)CC2` (stereo not shown) [Example 37, N-(adamantan-1-ylmethyl)-7,7-dimethyl-2-{2-[(4-{4-[({3-nitro-4-[(tetrahydro-2H-pyran-4-ylmethyl)amino]phenyl}sulfonyl)carbamoyl]phenyl}piperazin-1-yl)methyl]phenyl}bicyclo[2.2.1]hept-2-ene-1-carboxamide], the Ki was 165 nM.
Work on `O=C(NS(=O)(=O)c1ccc(NCC2CCOCC2)c([N+](=O)[O-])c1)c1ccc(N2CCN(Cc3ccccc3C(=C(c3ccccc3)c3ccccc3)c3ccccc3)CC2)cc1` [Example 65, N-({3-nitro-4-[(tetrahydro-2H-pyran-4-ylmethyl)amino]phenyl}sulfonyl)-4-{4-[2-(triphenylvinyl)benzyl]piperazin-1-yl}benzamide] yielded a Ki of 928 nM.
Work on `O=C(NS(=O)(=O)c1ccc(NC2CCOCC2)c([N+](=O)[O-])c1)c1ccc(NCC23CC4CC(CC(C4)C2)C3)cc1` [Example 82, 4-{[adamantan-1-ylmethyl]amino}-N-{[3-nitro-4-(tetrahydro-2H-pyran-4-ylamino)phenyl]sulfonyl}benzamide] yielded a Ki of 2180 nM.
`C[C@@H]1[C@@H](N(C(=O)c2ccccc2)C2CCN(c3ccc(C(=O)NS(=O)(=O)c4ccc(NCC5CCCCC5)c([N+](=O)[O-])c4)cc3)CC2)C[C@H]2C[C@@H]1C2(C)C` [Example 3, 4-(4-{benzoyl[(1S,2S,3S,5R)-2,6,6-trimethylbicyclo[3.1.1]hept-3-yl]amino}piperidin-1-yl)-N-({4-[(cyclohexylmethyl)amino]-3-nitrophenyl}sulfonyl)benzamide] was tested, and the Ki was 65 nM.
`O=C(NS(=O)(=O)c1ccc(NCC2CCOCC2)c([N+](=O)[O-])c1)c1ccc(N2CCN(Cc3ccccc3-c3ccc(CN4C5CCCC4CC5)s3)CC2)cc1` [Example 40, 4-[4-(2-{5-[8-azabicyclo[3.2.1]oct-8-ylmethyl]-2-thienyl}benzyl)piperazin-1-yl]-N-({3-nitro-4-[(tetrahydro-2H-pyran-4-ylmethyl)amino]phenyl}sulfonyl)benzamide] was tested, and the Ki was 54.7 nM.
`O=C(NS(=O)(=O)c1ccc(NCC2CCOCC2)c([N+](=O)[O-])c1)c1ccc(N2CCN(Cc3cc([N+](=O)[O-])ccc3N3CC4CCC(CC4)C3)CC2)cc1` [Example 22, 4-{4-[2-(3-azabicyclo[3.2.2]non-3-yl)-5-nitrobenzyl]piperazin-1-yl}-N-({3-nitro-4-[(tetrahydro-2H-pyran-4-ylmethyl)amino]phenyl}sulfonyl)benzamide] showed a Ki of 31.4 nM.
`O=C(NS(=O)(=O)c1ccc(N[C@H](CCN2CCOCC2)CSc2ccccc2)c([N+](=O)[O-])c1)c1ccc(N2CCN(CC34CC5CC(CC(C5)C3)C4)CC2)cc1` [Example 10, 4-{4-[adamantan-1-ylmethyl]piperazin-1-yl}-N-[(4-{[(2R)-4-(morpholin-4-yl)-1-(phenylthio)butan-2-yl]amino}-3-nitrophenyl)sulfonyl]benzamide] was tested, and the Ki was under 20 nM.
With `C[C@@H]1[C@@H](Nc2cccc(C=C3CCN(c4ccc(C(=O)NS(=O)(=O)c5ccc(NCC6CCOCC6)c([N+](=O)[O-])c5)cc4)CC3)c2)C[C@H]2C[C@@H]1C2(C)C` [Example 73, N-({3-nitro-4-[(tetrahydro-2H-pyran-4-ylmethyl)amino]phenyl}sulfonyl)-4-[4-(3-{[(1S,2S,3S,5R)-2,6,6-trimethylbicyclo[3.1.1]hept-3-yl]amino}benzylidene)piperidin-1-yl]benzamide] the Ki was 93.2 nM.
With `CC1(C)[C@H]2CC[C@]1(CS(=O)(=O)NC(=O)c1ccc(N3CCN(Cc4ccccc4-c4ccc(Cl)cc4)CC3)cc1)C(=O)C2` [Example 57, 4-{4-[(4′-chlorobiphenyl-2-yl)methyl]piperazin-1-yl}-N-({[(1R,4S)-7,7-dimethyl-2-oxobicyclo[2.2.1]hept-1-yl]methyl}sulfonyl)benzamide] the Ki was 134 nM.
For `CC1(C)[C@@H]2CC[C@@]1(C)CN(c1ccc(C(=O)NS(=O)(=O)c3ccc(NC4CCOCC4)c([N+](=O)[O-])c3)cc1)C2` [Example 79, N-{[3-nitro-4-(tetrahydro-2H-pyran-4-ylamino)phenyl]sulfonyl}-4-[(1R,5S)-1,8,8-trimethyl-3-azabicyclo[3.2.1]oct-3-yl]benzamide], the Ki was 1420 nM.
For `COc1cccc(OC)c1C(=O)c1sccc1-c1ccccc1C=C1CCN(c2ccc(C(=O)NS(=O)(=O)c3ccc(NCC4CCOCC4)c([N+](=O)[O-])c3)cc2)CC1` [Example 68, 4-(4-{2-[2-(2,6-dimethoxybenzoyl)-3-thienyl]benzylidene}piperidin-1-yl)-N-({3-nitro-4-[(tetrahydro-2H-pyran-4-ylmethyl)amino]phenyl}sulfonyl)benzamide], the Ki was 92.6 nM.
